From the Kinase Knowledgebase extract (Sharma et al. 2016)

Biological target: EGFR (human) (UniProt P00533)
Conditions: a431

Sequence of EGFR (human) (P00533 whole entry, looked up): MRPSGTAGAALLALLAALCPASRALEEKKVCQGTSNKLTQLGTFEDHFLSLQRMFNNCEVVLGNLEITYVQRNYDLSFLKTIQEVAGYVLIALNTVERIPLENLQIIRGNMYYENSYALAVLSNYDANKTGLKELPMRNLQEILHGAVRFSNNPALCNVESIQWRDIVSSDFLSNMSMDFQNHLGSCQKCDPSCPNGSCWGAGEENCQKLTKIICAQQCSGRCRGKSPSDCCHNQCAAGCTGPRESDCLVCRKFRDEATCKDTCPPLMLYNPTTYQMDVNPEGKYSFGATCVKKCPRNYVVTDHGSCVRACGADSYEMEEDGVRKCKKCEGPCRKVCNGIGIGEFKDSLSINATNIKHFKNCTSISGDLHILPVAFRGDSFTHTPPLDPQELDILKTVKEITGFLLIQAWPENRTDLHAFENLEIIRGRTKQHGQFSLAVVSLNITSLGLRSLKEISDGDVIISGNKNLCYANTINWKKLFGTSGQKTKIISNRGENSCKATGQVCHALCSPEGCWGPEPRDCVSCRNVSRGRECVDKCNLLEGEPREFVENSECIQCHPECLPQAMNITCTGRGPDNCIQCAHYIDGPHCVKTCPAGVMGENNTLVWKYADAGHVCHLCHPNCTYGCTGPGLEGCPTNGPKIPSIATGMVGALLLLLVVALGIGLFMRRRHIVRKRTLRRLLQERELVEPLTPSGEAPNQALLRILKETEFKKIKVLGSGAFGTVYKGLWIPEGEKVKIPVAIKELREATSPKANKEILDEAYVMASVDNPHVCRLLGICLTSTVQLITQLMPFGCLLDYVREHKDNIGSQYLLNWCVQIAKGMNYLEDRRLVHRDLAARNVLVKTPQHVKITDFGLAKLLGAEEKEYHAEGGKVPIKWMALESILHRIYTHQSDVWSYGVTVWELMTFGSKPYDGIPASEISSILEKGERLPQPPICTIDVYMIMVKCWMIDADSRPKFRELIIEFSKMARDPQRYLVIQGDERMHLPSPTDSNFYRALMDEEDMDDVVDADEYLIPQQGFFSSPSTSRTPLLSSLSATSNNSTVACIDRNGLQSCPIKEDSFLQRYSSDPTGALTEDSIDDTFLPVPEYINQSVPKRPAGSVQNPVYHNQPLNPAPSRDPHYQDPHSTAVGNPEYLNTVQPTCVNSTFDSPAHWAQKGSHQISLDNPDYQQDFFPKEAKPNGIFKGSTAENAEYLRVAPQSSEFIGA

Compound | IC50 [µM]
C/C(=C/c1coc2nc(N)nc(N)c12)c1ccc(Cl)cc1.C/C(=C\c1coc2nc(N)nc(N)c12)c1ccc(Cl)cc1 | > 50
COc1cc(/C(C)=C/c2coc3nc(N)nc(N)c23)cc(OC)c1OC.COc1cc(/C(C)=C\c2coc3nc(N)nc(N)c23)cc(OC)c1OC | > 50
C/C(=C\c1coc2nc(N)nc(N)c12)c1ccc2c(c1)Cc1ccccc1-2 | > 50
C/C(=C/c1coc2nc(N)nc(N)c12)c1ccc(Cl)c(Cl)c1.C/C(=C\c1coc2nc(N)nc(N)c12)c1ccc(Cl)c(Cl)c1 | > 50
C/C(=C/c1coc2nc(N)nc(N)c12)c1cc(Cl)ccc1Cl | > 50
C/C(=C\c1coc2nc(N)nc(N)c12)c1cc(Cl)ccc1Cl | > 50
COc1ccccc1/C(C)=C/c1coc2nc(N)nc(N)c12 | > 50
C/C(=C\c1coc2nc(N)nc(N)c12)c1cccc(Cl)c1 | > 50
COc1ccc(OC)c(/C(C)=C/c2coc3nc(N)nc(N)c23)c1 | > 50
C/C(=C\c1coc2nc(N)nc(N)c12)c1ccc(Cl)cc1Cl | > 50
C/C(=C/c1coc2nc(N)nc(N)c12)c1ccc2ccccc2c1.C/C(=C\c1coc2nc(N)nc(N)c12)c1ccc2ccccc2c1 | > 50
C/C(=C/c1coc2nc(N)nc(N)c12)c1ccc(Cl)c(Cl)c1Cl.C/C(=C\c1coc2nc(N)nc(N)c12)c1ccc(Cl)c(Cl)c1Cl | > 50
C/C(=C\c1coc2nc(N)nc(N)c12)c1ccc(Cl)c(Cl)c1Cl | > 50
C/C(=C/c1coc2nc(N)nc(N)c12)c1ccc(-c2ccccc2)cc1.C/C(=C\c1coc2nc(N)nc(N)c12)c1ccc(-c2ccccc2)cc1 | > 50
